Measurements as given in ChEMBL document CHEMBL1135150, “Vitamin D(3): synthesis of seco C-9,11,21-trisnor-17-methyl-1 alpha, 25-dihydroxyvitamin D(3) analogues” (2002).

How the values were obtained:
[1] = system: HL-60; assay: In vitro biological evaluation was determined on HL60 cell line, results expressed as percentage activity at 50% dose response; assay type: functional, Homo sapiens
[2] = system: Mus musculus; assay: In vivo calcemic effects was tested in vitamin D-replete normal NMRI mice by daily intraperitoneal injections of 1-alpha,25(OH)2D3; assay type: functional
[3] = system: Keratinocyte; assay: In vitro biological evaluation was determined on Keratinocytes, results expressed as percentage activity at 50% dose response; assay type: functional, Homo sapiens
[4] = molecular target: T1, Vitamin D3 receptor (Sus scrofa domesticus) (UniProt Q7M3G7); assay: The affinity to the pig intestinal mucosa vitamin D receptor was evaluated in vitro, results expressed as percentage activity at 50% dose response; assay type: tissue-based
T1 sequence (whole entry): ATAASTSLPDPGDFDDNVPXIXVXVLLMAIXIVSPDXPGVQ

[5] = system: MG-63; assay: In vitro biological evaluation was determined on MG-63 cell line, results expressed as percentage activity at 50% dose response; assay type: functional, Homo sapiens
[6] = system: MCF7; assay: In vitro biological evaluation was determined on MCF-7 cell line, results expressed as percentage activity at 50% dose response; assay type: functional, Homo sapiens
[7] = system: HL-60; assay: In vitro biological evaluation was determined on HL60, results expressed as percentage activity at 50% dose response; assay type: functional, Homo sapiens

| Structure (SMILES) | Activity [1] | Activity [2] | Activity [3] | Activity [4] | Activity [5] | Activity [6] | Activity [7] |
| --- | --- | --- | --- | --- | --- | --- | --- |
| C=C1C(=CC=C[C@@H]2CC[C@](C)(/C=C\CCC(O)(C(F)(F)F)C(F)(F)F)C2(C)C)C[C@@H](O)C[C@@H]1O | 50% | 13% | 300% | 80% | 50% | 375% | – |
| C=C1/C(=C\C=C\[C@@H]2CC[C@](C)(CCC#CC(C)(C)O)C2(C)C)C[C@@H](O)C[C@@H]1O | 100% | 0.1% | 400% | 9% | 50% | 150% | – |
| C=C1C(=CC=C[C@@H]2CC[C@](C)(CCCCC(C)(C)O)C2(C)C)C[C@@H](O)C[C@@H]1O | 40% | <1% | 40% | 30% | 60% | 80% | – |
| CC(C)(O)C#CCC[C@@]1(C)CC[C@@H](/C=C/C=C2C[C@@H](O)C[C@H](O)C2)C1(C)C | 60% | 0.25% | 85% | 60% | – | 70% | – |
| C=C1C(=CC=C[C@@H]2CC[C@](C)(CCCCC(O)(C(F)(F)F)C(F)(F)F)C2(C)C)C[C@@H](O)C[C@@H]1O | 150% | 10% | 750% | 80% | 200% | 1250% | – |
| C=C1C(=CC=C[C@@H]2CC[C@](C)(CCCC(F)(F)C(C)(C)O)C2(C)C)C[C@@H](O)C[C@@H]1O | 80% | 3% | 1350% | 75% | 50% | 90% | – |
| C=C1/C(=C\C=C2/CCC[C@]3(C)[C@@H]([C@H](C)CCCC(C)(C)O)CC[C@@H]23)C[C@@H](O)C[C@@H]1O [CALCITRIOL] | 100% | 100% | 100% | 100% | 100% | 100% | – |
| C=C1C(=CC=C[C@@H]2CC[C@](C)(/C=C\CC(F)(F)C(C)(C)O)C2(C)C)C[C@@H](O)C[C@@H]1O | 20% | <0.1% | 200% | 40% | 12% | 70% | – |
| CC(C)(O)CCCC[C@@]1(C)CC[C@@H](/C=C/C=C2C[C@@H](O)C[C@H](O)C2)C1(C)C | 9% | 0.25% | 10% | 40% | 40% | 30% | – |
| CCC(O)(CC)CCCC[C@@]1(C)CC[C@@H](/C=C/C=C2C[C@@H](O)C[C@H](O)C2)C1(C)C | 85% | 0.25% | 40% | 75% | 80% | 100% | – |
| CC(C)(O)C(F)(F)C/C=C\[C@@]1(C)CC[C@@H](/C=C/C=C2C[C@@H](O)C[C@H](O)C2)C1(C)C | 20% | 0.5% | 60% | 70% | – | 10% | – |
| C=C1C(=CC=C[C@@H]2CC[C@](C)(CCCCC(O)(CC)CC)C2(C)C)C[C@@H](O)C[C@@H]1O | 100% | 5% | 90% | 80% | 200% | 250% | – |
| CC1(C)[C@H](/C=C/C=C2C[C@@H](O)C[C@H](O)C2)CC[C@]1(C)CCC#CC(O)(C(F)(F)F)C(F)(F)F | – | 1% | 4500% | 100% | – | 2000% | 300% |
